“And” between values parts separate entries of the source, which are not always exact repeats. Identical values can stand only once.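 Step 1: Grow cells in 96-well plates. Step 2: Expose to compound for 48 hours at 5 concentrations. Step 3: Interpolate endpoints linearly; if unreached, use highest concentration. Here, GI50 denotes the concentration required for 50% inhibition of growth. The concentration for full growth arrest is given as TGI.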
System: MDA-MB-468 breast
Experiment: NCI tumour cell line growth inhibition, 48 h

**Q.** With `Fc1ccc(-c2nc(C(Cl)Cl)nc3cc(-c4ccccc4)nn23)cc1` as the molecule, how does the GI50 read?
**A.** 2140 nM

**Q.** What about the TGI of the same molecule?
**A.** 4950 nM

**Q.** Which GI50 does the source give for `CC(=O)OC[C@H]1OC(O)C=C[C@@H]1OC(C)=O` (stereo not given in full) here?
**A.** 82500 nM

**Q.** What about the TGI of the same molecule?
**A.** 180000 nM

**Q.** How did the GI50 turn out when `CS(=O)(=O)Nc1cc(-c2ccc3ncc(C#N)c(Nc4cccc(Cl)c4F)c3c2)cnc1Cl` was run?
**A.** 116 nM

**Q.** And the TGI?
**A.** 1390 nM

**Q.** Which results are given for `Cc1nc2ccc(Nc3nc(Cl)nc(Nc4ccc(F)cc4)n3)cc2n1Cc1ccccc1`?
**A.** GI50: 1860 nM; TGI: 3780 nM

**Q.** `CCN(CC)c1ccc(C2=NN(C(C)=O)C(c3cc(OC)c(OC)c(OC)c3)C2)cc1` (stereo not given) was tested. Which GI50 did it give?
**A.** 256 nM

**Q.** What about the TGI of the same molecule?
**A.** 4100 nM

**Q.** Which results are given for `Nc1ccn(C2OC(CO)C(O)C2(F)F)c(=O)n1` (stereo not given)?
**A.** GI50: 18 nM; TGI: 55.8 nM

**Q.** With `CS(=O)(=O)Nc1ccc(Nc2c3ccccc3nc3cc([N+](=O)[O-])ccc23)cc1` as the molecule, how does the GI50 read?
**A.** 304 nM

**Q.** And the TGI?
**A.** 2020 nM

**Q.** What does the source list for `Nc1ncc(-c2ccc3ncnc(N4CCc5ccc(Cl)cc54)c3c2)cn1`?
**A.** GI50: 479 nM; TGI: 2080 nM

**Q.** `COC1C(O)CC(OC2CC(OC3CC(O[C@@H]4C(=O)c5c(cc6cc(OC7CC(OC8CC(O)C(O)C(C)O8)C(O)C(C)O7)c(C)c(O)c6c5O)CC4[C@H](OC)C(=O)C(C)=O)OC(C)C3O)OC(C)C2O)OC1C` (stereo not given in full) was tested. Which GI50 did it give?
**A.** 16.1 nM

**Q.** And the TGI?
**A.** 52.1 nM

**Q.** Which results are given for `CC(C)Cc1ccc(C(C)C(=O)NCc2ccc(Cn3c(=O)sn(CCCCl)c3=O)cc2)cc1` (stereo not given)?
**A.** GI50: 1350 nM; TGI: 3010 nM

**Q.** With `CCOC(=O)C1=C(C)N=C2SC=C(c3ccccc3)N2[C@H]1c1cn[nH]c1-c1ccc(Cl)cc1` as the molecule, how does the GI50 read?
**A.** 3540 nM

**Q.** And the TGI?
**A.** 16600 nM

**Q.** Which GI50 does the source give for `CC(C)Sc1nc(Nc2ccc(S(N)(=O)=O)cc2)c(C#N)c(-c2ccc(F)cc2)n1` here?
**A.** 4590 nM

**Q.** What about the TGI of the same molecule?
**A.** 18000 nM

**Q.** Which results are given for `Cc1ccc(C(=O)Nc2ccc(CNCCN3CCOCC3)c(C(F)(F)F)c2)cc1C#Cc1cnc2cccnn12`?
**A.** GI50: 2150 nM; TGI: 6190 nM

**Q.** With `CCN(Cc1ccccc1F)c1ccc(CO)c(Cl)c1` as the molecule, how does the TGI read?
**A.** 13 nM

**Q.** Which results are given for `O=C(CI)OCC(COC(=O)CI)OC(=O)CI`?
**A.** GI50: 2340 nM; TGI: 7910 nM

**Q.** Which GI50 does the source give for `COc1ccc(C(=O)/C=C/c2c(OC)cc(OC)cc2OC)c(OC)c1` here?
**A.** 1590 nM

**Q.** And the TGI?
**A.** 4660 nM

**Q.** How did the GI50 turn out when `O=C1c2ccccc2C(=O)c2c(Nc3ccc(CCO)cc3)ccc(O)c21` was run?
**A.** 1430 nM

**Q.** And the TGI?
**A.** 22800 nM

**Q.** Which GI50 does the source give for `COc1ccc(-c2cc(=O)oc3ccc(Cl)cc23)cc1F` here?
**A.** 110 nM and 29.5 nM

**Q.** What about the TGI of the same molecule?
**A.** 644 nM and 97.9 nM

**Q.** What does the source list for `OCCCc1n(Cc2ccc3ccccc3c2)c2ccccc2[n+]1Cc1ccc2ccccc2c1`?
**A.** GI50: 291 nM; TGI: 1370 nM

**Q.** Which results are given for `O=C1Nc2ccccc2/C1=C/C(=O)c1ccc(N2CCCC2)cc1`?
**A.** GI50: 1960 nM; TGI: 6590 nM

**Q.** `OCc1cn(Cc2ccc(Cl)cc2)c2ccccc12` was tested. Which GI50 did it give?
**A.** < 10 nM

**Q.** `CS(=O)(=O)c1ccc(Oc2cc(F)cc(C#N)c2)c2c1[C@H](O)[C@H](F)[C@H]2F` was tested. Which GI50 did it give?
**A.** > 100000 nM

**Q.** What about the TGI of the same molecule?
**A.** > 100000 nM

**Q.** Which results are given for `C#CCN(C)CCCOc1ccc(NC(=O)CCCCCCC(=O)NO)cc1Cl`?
**A.** GI50: 853 nM; TGI: 4980 nM

**Q.** What does the source list for `COc1cccc(C(=O)c2sc(Nc3ccc(N4CCN(C(C)C)CC4)cc3)nc2N)c1`?
**A.** GI50: 1620 nM; TGI: 9220 nM

**Q.** How did the GI50 turn out when `COc1ccc([As]=[As]c2ccc(OC)c(NCS(=O)(=O)O)c2)cc1NCS(=O)(=O)O` (stereo not given) was run?
**A.** 1290 nM

**Q.** What about the TGI of the same molecule?
**A.** 3060 nM

**Q.** For `COc1cc2cc(c1Cl)N(C)C(=O)C[C@H](OC(=O)[C@H](C)N(C)C(=O)CCS)C[C@]1(C)O[C@H]1[C@H](C)[C@@H]1C[C@@](O)(NC(=O)O1)[C@H](OC)/C=C/C=C(\C)C2`, which GI50 is on record?
**A.** < 5 nM

**Q.** What about the TGI of the same molecule?
**A.** < 5 nM

**Q.** Which results are given for `Cc1ccc(/C=C2\COc3ccc(O)c(O)c3C2=O)cc1`?
**A.** GI50: 907 nM; TGI: 2990 nM

**Q.** For `CCOC(=O)c1ccc2c(c1)nc(-c1ccc(Cl)cc1)n2-c1cc(C(C)(C)C)[nH]n1`, which GI50 is on record?
**A.** 2120 nM

**Q.** What about the TGI of the same molecule?
**A.** 8180 nM

**Q.** What does the source list for `Cc1ccc2c(n1)C(=O)C(Cl)=C(Nc1cccc(C)c1C)C2=O`?
**A.** GI50: 1530 nM; TGI: 3250 nM

**Q.** How did the GI50 turn out when `COc1ccc(O)c2c(=O)c3c(OC)cc4c(c3oc12)[C@@H]1C=CO[C@@H]1O4` was run?
**A.** 131 nM

**Q.** And the TGI?
**A.** 447 nM

**Q.** With `COc1ccc(-c2nn(C(=O)NCCN(C)C)cc2-c2ccncc2)cc1Cl` as the molecule, how does the GI50 read?
**A.** 1950 nM

**Q.** And the TGI?
**A.** 11700 nM

**Q.** `CC12OC(CC(O)C1O)n1c3ccccc3c3c4c(c5c6ccccc6n2c5c31)C(=O)N(CCN1CCCC1)C4=O` (stereo not given) was tested. Which GI50 did it give?
**A.** 1000 nM

**Q.** And the TGI?
**A.** 3110 nM

**Q.** `CCN(Cc1cccnc1)c1ccc(CO)c(Cl)c1` was tested. Which GI50 did it give?
**A.** 29 nM

**Q.** What about the TGI of the same molecule?
**A.** 104 nM

**Q.** What does the source list for `C/C(=N\NC(=O)c1ccc(C(C)(C)C)cc1)c1ccc(O)cc1O`?
**A.** GI50: 1020 nM; TGI: 5100 nM

**Q.** Which results are given for `COc1cc(/C=C2\CN(S(=O)(=O)c3ccc(C)cc3)C/C(=C\c3cc(CN4CCOCC4)c(O)c(OC)c3)C2=O)cc(CN2CCOCC2)c1O`?
**A.** GI50: 4050 nM; TGI: > 100000 nM

**Q.** How did the GI50 turn out when `Cc1ccc(C(=Nc2ccccc2)N=P(c2ccccc2)(c2ccccc2)c2ccccc2)cc1` was run?
**A.** 944 nM

**Q.** What about the TGI of the same molecule?
**A.** 4300 nM

Reference: PubChem BioAssay (NCI)
